# Results: article PMC9715504, “The blood-to-plasma ratio and predicted GABAA-binding affinity of designer benzodiazepines” (Forensic Toxicology, 2022)
# Where two headings read alike, the source gives them in different places.
# How the values were obtained:
# [1] = cited from earlier work; for Kb/p literature (blood-to-plasma ratio): literature range
# [2] = Determination of the blood-to-plasma ratio (spiked whole blood and plasma, GC–MS of plasma); format: in vitro ADME; conditions: pooled human blood, haematocrit 41%, 1 h at 37 °C; for blood plasma ratio at 1 h, 5 µM: both sexes, pooled whole blood and plasma, read-out: Kb/p experimental (blood-to-plasma ratio); for Kb/p experimental (blood-to-plasma ratio): 5 µM
# Procedure: Human blood (pooled, from three male donors and three female donors) was obtained from Seralab (West Sussex, UK). Blood was received chilled with sodium citrate as an anticoagulant and kept at 4 °C until use. The blood was used prior to its expiration date. Blood haematocrit was 41%, as provided by the supplier.
# In this method, only analysis of the plasma is required. Briefly, the compound is spiked into equal volumes of whole blood and plasma. Following equilibration, the whole blood is centrifuged to extract the plasma. The extracted plasma and the original plasma are analysed to obtain compound concentrations. The blood-to-plasma ratio can then be calculated from Eq. 1 (shown below).
# In this work, aliquots of whole blood (5 mL) were centrifuged at 2500 rpm for 20 min to provide plasma. This was performed on the day of the experiments. The plasma was removed and stored at 4 °C until use (typically within 2 h).
# The compounds were dissolved in DMSO or acetonitrile to produce 5 mM stock solutions. Stock solutions were diluted with PBS (pH 7.4) to produce working solutions (50 µM) on the day of experimentation. Stock solutions were stored for no longer than 1 week. Appropriate volumes of working solutions were added to blood or plasma to yield a final compound concentration of 5 µM (final solvent concentrations were 0.1%). The treated blood or plasma samples were incubated for 1 h at 37 °C. Following incubation, the blood sample was removed and centrifuged at 2500 rpm for 20 min and the plasma was extracted. The 250 µL of extracted plasma (from spiked whole blood) and 250 µL of spiked plasma had ice-cold acetonitrile added to precipitate proteins (4:1 ratio of acetonitrile-to-plasma). Both plasma samples were then centrifuged at 10,000 rpm for 20 min. The supernatants were collected and evaporated under a stream of nitrogen using a Biotage Turbovap LV Evaporator. The evaporated samples were reconstituted in 150 µL acetonitrile and analysed using gas chromatography–mass spectrometry (GC–MS).
# The […] was calculated using Eq. 11 Ke/p=1/H×CPRef/CP-1+1, where Ke/p is the red blood cell partition coefficient, H is the haematocrit, CPRef is the concentration (µM) in the reference plasma, and CP is the concentration (µM) in the plasma separated from the whole blood.
# Ke/p describes the ratio of the concentration of drug in the red blood cells (not including plasma) to the concentration of drug in plasma. Ke/p can be converted to the blood-to-plasma ratio (Kb/p) with Eq. 22 Kb/p=(Ke/p×H)+1-H, where Kb/p is the blood-to-plasma ratio, Ke/p is the […], and H is the haematocrit. Kb/p therefore describes the ratio of the concentration of drug in whole blood (containing both red blood cells and plasma) to the concentration of the drug in plasma.
# [3] = ref 13; cited from earlier work
# [4] = parameters: method as in PMID 31933443; conditions: user reports; cited from earlier work
# GABAA receptor = target: GABAA receptor; parameters: method as in PMID 29685303; conditions: QSAR, previous work; cited from earlier work
smiles,measurement,setting,value
"CN(C)CCCN1c2ccccc2Sc2ccc(Cl)cc21 [Chlorpromazine, chlorpromazine]",Kb/p literature (blood-to-plasma ratio),[1],1.17–1.56
same,"blood plasma ratio at 1 h, 5 µM",[2],1.43 ± 0.32
"O=C1CN=C(c2ccccc2Cl)c2cc([N+](=O)[O-])ccc2N1 [Clonazepam, clonazepam]",blood-to-plasma ratio,[1]; ref 37,0.65
"CCc1cc2c(s1)-n1c(C)nnc1CN=C2c1ccccc1 [Deschloroetizolam, deschloroetizolam]",plasma protein binding,[3],87.2%
same,Kb/p experimental (blood-to-plasma ratio),[2],0.68 ± 0.06
"CN1C(=O)CN=C(c2ccccc2Cl)c2cc(Cl)ccc21 [Diclazepam, diclazepam]",plasma protein binding,[3],93.8%
same,Kb/p experimental (blood-to-plasma ratio),[2],0.82 ± 0.05
"CCc1cc2c(s1)-n1c(C)nnc1CN=C2c1ccccc1Cl [Etizolam, etizolam]",plasma protein binding,[3],92.8%
same,"blood plasma ratio at 1 h, 5 µM",[2],0.7 ± 0.03
Cc1nnc2n1-c1sc(Cl)cc1C(c1ccccc1F)=NC2 [Fluclotizolam],dose reported as having a 'heavy effect',[4],more than 0.75 mg
"C[C@@H]1N=C(c2ccccc2Cl)c2cc([N+](=O)[O-])ccc2NC1=O [Meclonazepam, meclonazepam]","blood plasma ratio at 1 h, 5 µM",[2],0.83 ± 0.08
"O=C1CN=C(c2ccccc2)c2cc([N+](=O)[O-])ccc2N1 [Nitrazepam, nitrazepam]",blood-to-plasma ratio,[1]; calculated from literature whole blood and plasma concentrations (125-I radioimmunoassay),0.57 ± 0.27
same,blood-to-plasma ratio,"[1]; commonly reported value, origin unclear",1.0
same,Kb/p literature (blood-to-plasma ratio),[1],0.57–1.00
same,"blood plasma ratio at 1 h, 5 µM",[2],0.63 ± 0.02
"O=C1CN=C(c2ccccc2Cl)c2cc(Br)ccc2N1 [Phenazepam, phenazepam]",plasma protein binding,[3],98.3%
same,"blood plasma ratio at 1 h, 5 µM",[2],0.57 ± 0.13
"Cc1nnc2n1-c1ccc(Br)cc1C(c1ccccn1)=NC2 [Pyrazolam, pyrazolam]",plasma protein binding,[3],78.7%
same,Kb/p experimental (blood-to-plasma ratio),[2],1.18 ± 0.03
"C=C[C@H]1C[N@@]2CC[C@H]1C[C@H]2[C@H](O)c1ccnc2ccc(OC)cc12 [Quinine, quinine]",Kb/p literature (blood-to-plasma ratio),[1],1.46–2.00
same,"blood plasma ratio at 1 h, 5 µM",[2],1.66 ± 0.52
Cc1nnc2n1-c1ccc([N+](=O)[O-])cc1C(c1ccccc1F)=NC2 [flunitrazolam],predicted log 1/c value,GABAA receptor,8.88
O=C1Nc2ccc(Cl)cc2C(c2ccccc2Cl)=NC1O (stereo not drawn) [lorazepam],blood-to-plasma ratio,[1]; ref 16,0.60
same,blood-to-plasma ratio,[1]; ref 38,1.14
